Results taken from patent US9605000B2, “Spiro azetidine isoxazole derivatives and their use as SSTR antagonists” (Takeda Pharmaceutical Company Limited, priority 2013, dated 2017).

Each molecule was assayed against T1, human SSTR5 (Homo sapiens, UniProt P35346) (assay: Human SSTR5 antagonist activity using intracellular cAMP concentration as indicator (somatostatin 14, Test Example 1)). Settings: 1 μM test compound; 1 nM somatostatin 14 and 0.3 μM forskolin; CHO (dhfr-) cells expressing human SSTR5; HTRF cAMP.
T1 construct: expressed in transfected cells
T1 sequence (P35346 whole entry): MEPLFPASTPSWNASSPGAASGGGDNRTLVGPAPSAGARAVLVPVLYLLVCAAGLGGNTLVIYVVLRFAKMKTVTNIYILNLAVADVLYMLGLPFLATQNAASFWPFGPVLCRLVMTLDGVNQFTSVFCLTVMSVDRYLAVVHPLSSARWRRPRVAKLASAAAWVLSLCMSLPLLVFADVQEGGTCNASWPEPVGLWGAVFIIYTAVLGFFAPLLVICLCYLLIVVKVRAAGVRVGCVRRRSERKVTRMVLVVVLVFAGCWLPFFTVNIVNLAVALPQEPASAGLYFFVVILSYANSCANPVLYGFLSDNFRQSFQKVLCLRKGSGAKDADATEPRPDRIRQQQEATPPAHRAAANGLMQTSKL
Assay type: cell-based
Method: (§1) Evaluation of Human SSTR5 Antagonist Activity Using an Intracellular cAMP Concentration as an Indicator
Measurement of the intracellular cAMP concentration was performed using a HTRF cAMP dynamic 2 kit (manufactured by Cisbio). A test compound which was diluted with an assay buffer (5 mM HEPES (pH 7.5) (manufactured by Invitrogen Corp.), 0.1% Fatty-acid free BSA (manufactured by Sigma-Aldrich, Inc.), HESS (manufactured by Invitrogen Corp.) containing 500 μM IBMX (manufactured by Wako Pure Chemical Industries, Ltd) was added by 2 μL/well to a 384 well white plate (manufactured by Greiner) such that a final concentration become 1 μM. A frozen stock, which was stably expressed dihydrofolate reductase-deficient (dhfr-) CHO cells in which human SSTR5 gene (Accession No. NM001053), was melted in a thermostatic chamber at 37° C., and it was suspended on a medium of subculture (medium prepared from MEM alpha (Nikken Biomedical Institute Ltd.), 10% dialyzed serum (manufactured by Gemini Co., Ltd.) and 50 μg/mL gentamicin (manufactured by Invitrogen Corp.). After centrifuging the cell suspension, the cell suspension was resuspended using the assay buffer, and the resultant was added to each well by 2 μL/well to be 3760 cells/well. After a test compound and cells were mixed, the resultant was incubated for 15 minutes. An assay buffer which contains 1 nM of somatostatin 14 (manufactured by PEPTIDE INSTITUTE, INC.) and 0.3 μM of forskolin (manufactured by Wako Pure Chemical Industries, Ltd) as a final concentration was added by […], and incubation was performed for 30 minutes at room temperature. Each of cAMP-d2 and anti-cAMP-cryptate was added by 3 μL/well, it was allowed to stand for 60 minutes at room temperature, and FRET (Fluorescence resonance energy transfer) intensity was measured using Multi-label reader Envision (manufactured by Perkin Elmer Inc.). Using the calibration curve prepared from the FRET intensity of well groups in which cAMP as arbitrary concentration was added to any assay buffer, FRET intensity of wells in which a test compound group was added was converted into cAMP concentration. Inhibitory activity of compounds was calculated using the following equation. Inhibitory activity (%)=(C−B)/(A−B)×100 A: cAMP concentration calculated from wells in which 0.3 μM of forskolin is added B: cAMP concentration calculated from wells in which 0.3 μM of forskolin and 1 nM of somatostatin 14 are added C: cAMP concentration wells in which 0.3 μM of forskolin, 1 nM of somatostatin 14 and 1 μM of test compound are added
Inhibition rates (%) are described in Table 2 with respect to SSTR5 in concentration of 1 μM of a test compound.

Inhibition rate (%) with respect to SSTR5 in concentration of 1 μM | Compound
97% | CCOc1cc(CN2CC3(CC(N4CCC(C)(C(=O)O)CC4)=NO3)C2)cc(C2CC2(F)F)c1-c1ccc(F)cc1 (centres unmarked) [Example 171, 1-(2-((2-(2,2-difluorocyclopropyl)-6-ethoxy-4′-fluorobiphenyl-4-yl)methyl)-5-oxa-2,6-diazaspiro[3.4]oct-6-en-7-yl)-4-methylpiperidine-4-carboxylic acid]

Same assay, conditions: 1 μM test compound; 1 nM somatostatin 14 and 0.3 μM forskolin; CHO (dhfr-) cells expressing human SSTR5; HTRF cAMP; read-out: Inhibition rate (%) with respect to SSTR5 in concentration of 1 μM

inhibition at 1 µM | Compound
100% | CC1(C(=O)O)CCN(C2=NOC3(C2)CN(Cc2cc(OCC4CC4(F)F)c(-c4ccc(F)cc4)c(C4CC4)c2)C3)CC1 (centres unmarked) [Example 104, 1-(2-((2-Cyclopropyl-6-((2,2-difluorocyclopropyl)methoxy)-4′-fluorobiphenyl-4-yl)methyl)-5-oxa-2,6-diazaspiro[3.4]oct-6-en-7-yl)-4-methylpiperidine-4-carboxylic acid]
96% | COc1cc(-c2ccc(F)cc2)c(C2CC2)cc1CN1CC2(CC(N3CCC(C(=O)O)CC3)=NO2)C1 [Example 214, 1-(2-((2-Cyclopropyl-4′-fluoro-5-methoxybiphenyl-4-yl)methyl)-5-oxa-2,6-diazaspiro[3.4]oct-6-en-7-yl)piperidine-4-carboxylic acid]
83% | CC1(C(=O)O)CCN(C2=NOC3(C2)CN(Cc2cc(OCC4CC4)c(-c4ccc(F)cc4F)c(C4CC4)c2)C3)CC1 [Example 191, 1-(2-((2-Cyclopropyl-6-(cyclopropylmethoxy)-2′,4′-difluorobiphenyl-4-yl)methyl)-5-oxa-2,6-diazaspiro[3.4]oct-6-en-7-yl)-4-methylpiperidine-4-carboxylic acid]
100% | CCOc1cc(CN2CC3(CC(N4CCC(CC)(C(=O)O)CC4)=NO3)C2)cc(OCC)c1-c1ccc(F)cc1F [Example 182, 1-(2-((2,6-Diethoxy-2′,4′-difluorobiphenyl-4-yl)methyl)-5-oxa-2,6-diazaspiro[3.4]oct-6-en-7-yl)-4-ethylpiperidine-4-carboxylic acid]
103% | CCOc1cc(CN2CC3(C2)ON=C(N2CCC(C)(C(=O)O)CC2)C3C)cc(OCC)c1-c1ccc(F)cc1 (centres unmarked) [Example 12, 1-(2-((2,6-Diethoxy-4′-fluorobiphenyl-4-yl)methyl)-8-methyl-5-oxa-2,6-diazaspiro[3.4]oct-6-en-7-yl)-4-methylpiperidine-4-carboxylic acid]
83% | CCOc1cc(CN2CC3(CC(N4CCC(C)(C(=O)O)CC4)=NO3)C2)cc(Cl)c1-c1ccc(F)cc1 [Example 43, 1-(2-((2-Chloro-6-ethoxy-4′-fluorobiphenyl-4-yl)methyl)-5-oxa-2,6-diazaspiro[3.4]oct-6-en-7-yl)-4-methylpiperidine-4-carboxylic acid]
90% | CCOc1cc(CN2CC3(CC(N4CCC(C)(C(=O)O)CC4)=NO3)C2)cc(C2CC2)c1-c1ccc(F)cc1F [Example 118, 1-(2-((2-Cyclopropyl-6-ethoxy-2′,4′-difluorobiphenyl-4-yl)methyl)-5-oxa-2,6-diazaspiro[3.4]oct-6-en-7-yl)-4-methylpiperidine-4-carboxylic acid]
120% | CCOc1cc(CN2CC3(CC(N4CCC(C(=O)O)CC4)=NO3)C2)cc(OCC)c1-c1ccc(F)cc1 [Example 2, 1-(2-((2,6-Diethoxy-4′-fluorobiphenyl-4-yl)methyl)-5-oxa-2,6-diazaspiro[3.4]oct-6-en-7-yl)piperidine-4-carboxylic acid]
108% | CCOc1cc(CN2CC3(CC(N4CCC(C)(C(=O)O)CC4)=NO3)C2)cc(OCC)c1C1CCC1 [Example 100, 1-(2-(4-Cyclobutyl-3,5-diethoxybenzyl)-5-oxa-2,6-diazaspiro[3.4]oct-6-en-7-yl)-4-methylpiperidine-4-carboxylic acid]
91% | CC1(C(=O)O)CCN(C2=NOC3(C2)CN(Cc2cc(OCCC(F)(F)F)c(-c4ccc(F)cc4)c(C4CC4)c2)C3)CC1 [Example 106, 1-(2-((2-Cyclopropyl-4′-fluoro-6-(3,3,3-trifluoropropoxy)biphenyl-4-yl)methyl)-5-oxa-2,6-diazaspiro[3.4]oct-6-en-7-yl)-4-methylpiperidine-4-carboxylic acid]
112% | CCCOc1cc(CN2CC3(CC(N4CCC(C)(C(=O)O)CC4)=NO3)C2)cc(C2CC2)c1-c1ccccc1F [Example 188, 1-(2-((2-Cyclopropyl-2′-fluoro-6-propoxybiphenyl-4-yl)methyl)-5-oxa-2,6-diazaspiro[3.4]oct-6-en-7-yl)-4-methylpiperidine-4-carboxylic acid]
111% | CCOc1cc(CN2CC3(CC(N4CCC(CC)(C(=O)O)CC4)=NO3)C2)cc(C2CC2)c1-c1ccc(F)cc1 [Example 174, 1-(2-((2-Cyclopropyl-6-ethoxy-4′-fluorobiphenyl-4-yl)methyl)-5-oxa-2,6-diazaspiro[3.4]oct-6-en-7-yl)-4-ethylpiperidine-4-carboxylic acid]
94% | CCOc1cc(CN2CC3(CC(N4CCC(C)(C(=O)O)CC4)=NO3)C2)cc(C#N)c1-c1ccc(F)cc1 [Example 97, 1-(2-((2-Cyano-6-ethoxy-4′-fluorobiphenyl-4-yl)methyl)-5-oxa-2,6-diazaspiro[3.4]oct-6-en-7-yl)-4-methylpiperidine-4-carboxylic acid]

Each molecule was assayed against T1, human SSTR5 (assay: Human SSTR5 antagonist activity using intracellular cAMP concentration as indicator (somatostatin 28, Test Example 2)). Settings: 1 μM test compound; somatostatin 28 and 0.3 μM forskolin; CHO (dhfr-) cells expressing human SSTR5; HTRF cAMP; read-out: Inhibition rate (%) with respect to SSTR5 in concentration of 1 μM.
Assay type: cell-based
Method: as §1
Measurement of the intracellular cAMP concentration was performed using a HTRF cAMP dynamic 2 kit (manufactured by Cisbio). A test compound which was diluted with an assay buffer (5 mM HEPES (pH 7.5) (manufactured by Invitrogen Corp.), 0.1% fatty-acid free BSA (manufactured by Sigma-Aldrich, Inc.), HBSS (manufactured by Invitrogen Corp.) containing 500 μM IBMX (manufactured by Wako Pure Chemical Industries, Ltd) was added by 2 μL/well to a 384 well white plate (manufactured by Greiner) such that a final concentration become 1 μM. A frozen stock, which was stably expressed dihydrofolate reductase-deficient CHO (dhfr-) cells in which human SSTR5 gene (Accession No. NM001053) was melted in a thermostatic chamber at 37° C., and it was suspended on a medium of subculture (medium prepared from MEM alpha (manufactured by Wako Pure Chemical Industries, Ltd.), 10% dialyzed serum (manufacture by Gemini Co., Ltd.) and 50 μg/mL gentamicin (manufactured by Invitrogen Corp.). After centrifuging the cell suspension, the cell suspension was resuspended using the assay buffer, and the resultant was added to each well by 2 μL/well to be 4000 cells/well. After a test compound and cells were incubated for 15 minutes. An assay buffer which contains 0.1 nM of somatostatin 28 (manufactured by Toray Research Center) and 0.3 μM of forskolin (manufactured by Wako Pure Chemical Industries, Ltd) as a final concentration was added by […], and incubation was performed for 30 minutes at room temperature. Each of cAMP-d2 and anti-cAMP-cryptate was added by 3 μL/well, it was allowed to stand for 60 minutes at room temperature, and FRET (Fluorescence resonance energy transfer) intensity was measured using Multi-label reader Envision (manufactured by Perkin Elmer Inc.). Using the calibration curve prepared from the FRET intensity of well groups in which cAMP as arbitrary concentration was added to an assay buffer, FRET intensity of wells in which a test compound group was added was converted into cAMP concentration. Inhibitory activity of compounds was calculated using the following equation. Inhibitory activity (%)=(C−B)/(A−B)×100 A: cAMP concentration calculated from wells in which 0.3 μM of forskolin is added B: cAMP concentration calculated from wells in which 0.3 μM of forskolin and 1 nM of somatostatin 28 are added C: cAMP concentration wells in which 0.3 μM of forskolin, 1 nM of somatostatin 28 and 1 μM of test compound are added
Inhibition rates (%) are described in Table 3 with respect to SSTR5 in concentration of 1 μM of a test compound.

inhibition at 1 µM | Compound
100% | CCC1(C(=O)O)CCN(C2=NOC3(C2)CN(Cc2cc(C4CC4)c(-c4ccc(F)cc4F)c(Cl)c2OC)C3)CC1 [Example 262, 1-(2-((2-Chloro-6-cyclopropyl-2′,4′-difluoro-3-methoxybiphenyl-4-yl)methyl)-5-oxa-2,6-diazaspiro[3.4]oct-6-en-7-yl)-4-ethylpiperidine-4-carboxylic acid]
117% | CCOc1c(CN2CC3(CC(N4CCC(C)(C(=O)O)CC4)=NO3)C2)cc(C2CC2)c(C2CC2)c1F [Example 257, 1-(2-(4,5-Dicyclopropyl-2-ethoxy-3-fluorobenzyl)-5-oxa-2,6-diazaspiro[3.4]oct-6-en-7-yl)-4-methylpiperidine-4-carboxylic acid]
88% | COc1c(CN2CC3(CC(N4CCC(C(=O)O)CC4)=NO3)C2)cc(C2CC2)c(-c2ccc(F)cc2)c1F [Example 266, 1-(2-((6-Cyclopropyl-2,4′-difluoro-3-methoxybiphenyl-4-yl)methyl)-5-oxa-2,6-diazaspiro[3.4]oct-6-en-7-yl)piperidine-4-carboxylic acid]
